Assay results from patent US10774064B2 (Cadent Therapeutics, Inc., priority 2016, dated 2020).

The compounds below were run against T1, small-conductance Ca2+-activated K+ channels (SK channels, subtype 2) (Homo sapiens, UniProt Q9H2S1) (assay: whole-cell patch-clamp of ionic current through SK2 channels in HEK293 cells (SC100)). Details: concentration that increases the basal current by 100%; HEK293 cells expressing SK2 channels.
T1 construct: expressed in transfected cells; host or cells: HEK293
Assay type: cell-based
How it was run: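 SC100, the concentration doubling basal current (a 100% increase), was taken from SK2 currents recorded by whole-cell patch-clamp in SK2-expressing HEK293 cells.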

| SMILES | SC100 |
| --- | --- |
| COC(=O)N1CC(OCc2cc(NC3CCC(F)(F)CC3)nc(-n3ccc(CF)n3)n2)C1 [Compound 335, methyl 3-((6-((4,4-difluorocyclohexyl)amino)-2-(3-(fluoromethyl)-1H-pyrazol-1-yl)pyrimidin-4-yl)methoxy)azetidine-1-carboxylate] | ++ (++ means 200 nM-1000 nM) |
| FCc1csc(-c2nc(NC3CCC(F)(F)CC3)cc(N3CCOCC3)n2)n1 [Compound 336, N-(4,4-difluorocyclohexyl)-2-(4-(fluoromethyl)thiazol-2-yl)-6-morpholinopyrimidin-4-amine] | ++ (++ means 200 nM-1000 nM) |
| CC(O)c1csc(-c2nc(NC3CCC(F)(F)CC3)cc(OC3CN(C(=O)C(C)(C)C)C3)n2)n1 (stereo not drawn) [Compound 337] | + (+ means >1 uM) |
| FCc1ccn(-c2nc(NC3CCC(F)(F)CC3)cc(N3CC4(COC4)C3)n2)n1 [Compound 338, N-(4,4-difluorocyclohexyl)-2-(3-(fluoromethyl)-1H-pyrazol-1-yl)-6-(2-oxa-6-azaspiro[3.3]heptan-6-yl)pyrimidin-4-amine] | ++ (++ means 200 nM-1000 nM) |
| FC(F)c1csc(-c2nc(NC3CCC(F)(F)CC3)cc(N3CCOCC3)n2)n1 [Compound 339, N-(4,4-difluorocyclohexyl)-2-(4-(difluoromethyl)thiazol-2-yl)-6-morpholinopyrimidin-4-amine] | ++ (++ means 200 nM-1000 nM) |
| CC(O)c1csc(-c2nc(NC3CCC(F)(F)CC3)cc(N3CCOCC3)n2)n1 (stereo not drawn) [Compound 340, 1-(2-(4-((4,4-difluorocyclohexyl)amino)-6-morpholinopyrimidin-2-yl)thiazol-4-yl)ethan-1-ol] | + (+ means >1 uM) |
| CCC(=O)N1CC(Oc2cc(NC3CCC(F)(F)CC3)nc(-c3nc(CF)cs3)n2)C1 [Compound 341, 1-(3-((6-((4,4-difluorocyclohexyl)amino)-2-(4-(fluoromethyl)thiazol-2-yl)pyrimidin-4-yl)oxy)azetidin-1-yl)propan-1-one] | ++ (++ means 200 nM-1000 nM) |
| FCc1ccn(-c2nc(NC3CCC(F)(F)CC3)cc(OC3CC(F)C3)n2)n1 (stereo not drawn) [Compound 346, N-(4,4-difluorocyclohexyl)-6-(3-fluorocyclobutoxy)-2-(3-(fluoromethyl)-1H-pyrazol-1-yl)pyrimidin-4-amine] | + (+ means >1 uM) |
| FCc1ccn(-c2nc(NC3CCC(F)(F)CC3)cc(OC3CC(F)(F)C3)n2)n1 [Compound 347, 6-(3,3-difluorocyclobutoxy)-N-(4,4-difluorocyclohexyl)-2-(3-(fluoromethyl)-1H-pyrazol-1-yl)pyrimidin-4-amine] | ++ (++ means 200 nM-1000 nM) |
| CC(C)C(=O)NCc1cc(NC2CCC(F)(F)CC2)nc(-n2ccc(CF)n2)c1 [Compound 348, N-((2-((4,4-difluorocyclohexyl)amino)-6-(3-(fluoromethyl)-1H-pyrazol-1-yl)pyridin-4-yl)methyl)isobutyramide] | ++ (++ means 200 nM-1000 nM) |
| FC1(F)CCC(Nc2cc(N3CCOCC3)nc(-n3ccc(C4CC4)n3)n2)CC1 [Compound 365, 2-(3-cyclopropyl-1H-pyrazol-1-yl)-N-(4,4-difluorocyclohexyl)-6-morpholinopyrimidin-4-amine] | ++ (++ means 200 nM-1000 nM) |

Results, then the compound that gave them:

| SC100 | SMILES |
| --- | --- |
| + (+ means >1 uM) | Cc1nc(-c2cc(NC3CCC(F)(F)CC3)nc(-n3ccc(CF)n3)n2)no1 [Compound 334, N-(4,4-difluorocyclohexyl)-2-(3-(fluoromethyl)-1H-pyrazol-1-yl)-6-(5-methyl-1,2,4-oxadiazol-3-yl)pyrimidin-4-amine] |
| ++ (++ means 200 nM-1000 nM) | CC(C)C(=O)N1CC(Oc2cc(NC3CCC(F)(F)CC3)nc(-c3nc(CF)cs3)n2)C1 [Compound 342, 1-(3-((6-((4,4-difluorocyclohexyl)amino)-2-(4-(fluoromethyl)thiazol-2-yl)pyrimidin-4-yl)oxy)azetidin-1-yl)-2-methylpropan-1-one] |
| ++ (++ means 200 nM-1000 nM) | Cc1cc(C)n(-c2cc(C(O)c3ncco3)cc(NC3CCC(F)(F)CC3)n2)n1 (stereo not drawn) [Compound 343, (2-((4,4-difluorocyclohexyl)amino)-6-(3,5-dimethyl-1H-pyrazol-1-yl)pyridin-4-yl)(oxazol-2-yl)methanol] |
| + (+ means >1 uM) | COC(=O)N1CC(Oc2cc(NC3CCC(F)(F)CC3)nc(-c3nc(C(C)O)cs3)n2)C1 (stereo not drawn) [Compound 344, methyl 3-((6-((4,4-difluorocyclohexyl)amino)-2-(4-(1-hydroxyethyl)thiazol-2-yl)pyrimidin-4-yl)oxy)azetidine-1-carboxylate] |
| ++ (++ means 200 nM-1000 nM) | Cc1cn(-c2cc(OC3COC3)cc(NC3CCC(F)(F)CC3)n2)nc1CF [Compound 345, N-(4,4-difluorocyclohexyl)-6-(3-(fluoromethyl)-4-methyl-1H-pyrazol-1-yl)-4-(oxetan-3-yloxy)pyridin-2-amine] |
| ++ (++ means 200 nM-1000 nM) | CC(=O)NCc1cc(NC2CCC(F)(F)CC2)nc(-n2cc(C)c(CF)n2)c1 [Compound 349, N-((2-((4,4-difluorocyclohexyl)amino)-6-(3-(fluoromethyl)-4-methyl-1H-pyrazol-1-yl)pyridin-4-yl)methyl)acetamide] |
| + (+ means >1 uM) | Cc1cc(C)n(-c2nc(NC3CCCC(F)(F)C3)cc(C(N)=O)n2)n1 (stereo not drawn) [Compound 350, 6-((3,3-difluorocyclohexyl)amino)-2-(3,5-dimethyl-1H-pyrazol-1-yl)pyrimidine-4-carboxamide] |
| + (+ means >1 uM) | Cc1cc(C)n(-c2nc(N[C@H]3CCCC(F)(F)C3)cc([C@H](C)O)n2)n1 [Compound 355, (−)-1-(6-(((S)-3,3-difluorocyclohexyl)amino)-2-(3,5-dimethyl-1H-pyrazol-1-yl)pyrimidin-4-yl)ethan-1-ol] |
| + (+ means >1 uM) | Cc1cc(C)n(-c2nc(NC3CCCC(F)(F)C3)cc(C(C)(C)O)n2)n1 (stereo not drawn) [Compound 356, 2-(6-((3,3-difluorocyclohexyl)amino)-2-(3,5-dimethyl-1H-pyrazol-1-yl)pyrimidin-4-yl)propan-2-ol] |
| + (+ means >1 uM) | Cc1cc(C)n(-c2nc(CO)cc(NC3CCCC(F)(F)C3)n2)n1 (stereo not drawn) [Compound 357, (6-((3,3-difluorocyclohexyl)amino)-2-(3,5-dimethyl-1H-pyrazol-1-yl)pyrimidin-4-yl)methanol] |
| + (+ means >1 uM) | Cc1cc(C)n(-c2nc(CF)cc(NC3CCCC(F)(F)C3)n2)n1 (stereo not drawn) [Compound 358, N-(3,3-difluorocyclohexyl)-2-(3,5-dimethyl-1H-pyrazol-1-yl)-6-(fluoromethyl)pyrimidin-4-amine] |
| ++ (++ means 200 nM-1000 nM) | COc1cc(NC2CCC(F)(F)CC2)nc(-n2nc(C)cc2C)n1 [Compound 360, N-(4,4-difluorocyclohexyl)-2-(3,5-dimethyl-1H-pyrazol-1-yl)-6-methoxypyrimidin-4-amine] |
| ++ (++ means 200 nM-1000 nM) | COc1cc(NC2CCC(F)(F)CC2)nc(-c2nc(C)cs2)n1 [Compound 361, N-(4,4-difluorocyclohexyl)-6-methoxy-2-(4-methylthiazol-2-yl)pyrimidin-4-amine] |

Same assay, conditions: whole-cell patch-clamp, HEK293 cells expressing SK2 channels; concentration that increases the basal current by 100%

| SMILES | SC100 (μM) |
| --- | --- |
| Cc1csc(-c2nc(NC3CCC(F)(F)CC3)cc(N3CCC(F)CC3)n2)n1 [IN10864-33.P1] | ++ (++ means 200 nM-1000 nM) |
| Cc1csc(-c2nc(NC3CCC(F)(F)CC3)cc(N3CCCOCC3)n2)n1 [IN10864-034.P1] | +++ (+++ means <200 nM) |
| Cc1csc(-c2nc(NC3CCC(F)(F)CC3)cc(N3CCN(C)C(CO)C3)n2)n1 (stereo not drawn) [IN10864-066-P1] | ++ (++ means 200 nM-1000 nM) |
| CC(=O)c1cc(NC2CCC(F)(F)CC2)nc(-n2ccc(C)n2)n1 [IN10876-041-P2] | + (+ means >1 uM) |
| Cc1ccn(-c2nc(NC3CCC(F)(F)CC3)cc(C(C)O)n2)n1 (stereo not drawn) [IN10876-051-P1] | + (+ means >1 uM) |

Now from value to compound:

| SC100 (μM) | SMILES |
| --- | --- |
| +++ (+++ means <200 nM) | Cc1csc(-c2nc(NC3CCC(F)(F)CC3)cc(N3CCN(C(C)C)CC3)n2)n1 [IN10864-031-P1] |
| +++ (+++ means <200 nM) | Cc1csc(-c2nc(NC3CCC(F)(F)CC3)cc(N3CCOC(C)(C)C3)n2)n1 [IN10864-043-P1] |
| +++ (+++ means <200 nM) | COCC1CN(c2cc(NC3CCC(F)(F)CC3)nc(-c3nc(C)cs3)n2)CCN1C (stereo not drawn) [IN10864-060-P1] |
| ++ (++ means 200 nM-1000 nM) | COC1CCCN(c2cc(NC3CCC(F)(F)CC3)nc(-c3nc(C)cs3)n2)C1 (stereo not drawn) [IN10876-013-P1] |
| + (+ means >1 uM) | CCOC(C)c1cc(NC2CCC(F)(F)CC2)nc(-n2ccc(C)n2)n1 (stereo not drawn) [IN10876-061-P1, N-(4,4-difluorocyclohexyl)-6-(1-ethoxyethyl)-2-(3-methyl-1H-pyrazol-1-yl)pyrimidin-4-amine] |
| + (+ means >1 uM) | Cc1ccn(-c2nc(NC3CCC(F)(F)CC3)cc(C(C)(F)F)n2)n1 [IN10876-069-P1, N-(4,4-difluorocyclohexyl)-6-(1,1-difluoroethyl)-2-(3-methyl-1H-pyrazol-1-yl)pyrimidin-4-amine] |
| + (+ means >1 uM) | Cc1ccn(-c2nc(NC3CCC(F)(F)CC3)cc(C(C)F)n2)n1 (stereo not drawn) [IN10876-080-P1, N-(4,4-difluorocyclohexyl)-6-(1-fluoroethyl)-2-(3-methyl-1H-pyrazol-1-yl)pyrimidin-4-amine] |
| + (+ means >1 uM) | Cc1csc(-c2nc(NC3CCC(F)(F)CC3)cc(C(C)(F)F)n2)n1 [IN10876-082-P1, N-(4,4-difluorocyclohexyl)-6-(1,1-difluoroethyl)-2-(4-methylthiazol-2-yl)pyrimidin-4-amine] |
| ++ (++ means 200 nM-1000 nM) | Cc1csc(-c2nc(NC3CCC(F)(F)CC3)cc(C(C)F)n2)n1 (stereo not drawn) [IN10876-092-P1, N-(4,4-difluorocyclohexyl)-6-(1-fluoroethyl)-2-(4-methylthiazol-2-yl)pyrimidin-4-amine] |
| ++ (++ means 200 nM-1000 nM) | Cc1csc(-c2nc(NC3CCC(F)(F)CC3)cc(N3CCN(C)CC3)n2)n1 [IN10880-014-P1] |
